Starred links: 1 amine or outer side, 2 acyl side, 3 side chain; linkers in the order of their positions; H or OH if unused. Non-standard residues stand in square brackets, D forms with d. Residues, ends and D or L forms follow the SMILES beside them. Groups on a side chain read outwards from the residue. *: point of attachment. C20 diacid = O=C(O)CCCCCCCCCCCCCCCCCCC(=O)*; γGlu = O=C(O)[C@H](CCC(=O)[*:2])N[*:1]; εLys = N[C@@H](CCCCN[*:1])C(=O)[*:2]; Trx = NC[C@H]1CC[C@H](C(=O)O)CC1; AEEA = NCCOCCOCC(=O)O; Aib = CC(C)(N)C(=O)O
Columns and labels:
mouse GIP receptor = molecular target: T1, mouse GIP receptor (Mus musculus, UniProt Q0P543); experiment: cell-based
T1 sequence (Q0P543 19-460): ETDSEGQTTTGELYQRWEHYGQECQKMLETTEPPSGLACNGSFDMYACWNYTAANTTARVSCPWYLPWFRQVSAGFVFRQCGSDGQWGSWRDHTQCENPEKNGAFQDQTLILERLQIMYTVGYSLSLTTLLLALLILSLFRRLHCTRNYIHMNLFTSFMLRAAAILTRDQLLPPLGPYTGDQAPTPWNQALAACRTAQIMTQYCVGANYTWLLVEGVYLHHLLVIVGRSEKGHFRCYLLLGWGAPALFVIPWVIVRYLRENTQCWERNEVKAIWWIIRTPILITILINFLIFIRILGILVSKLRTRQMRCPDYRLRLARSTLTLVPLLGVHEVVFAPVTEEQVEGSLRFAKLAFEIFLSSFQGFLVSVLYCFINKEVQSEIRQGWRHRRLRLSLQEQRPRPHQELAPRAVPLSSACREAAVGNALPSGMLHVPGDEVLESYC

human glucagon receptor = human glucagon receptor (Homo sapiens, UniProt P47871); experiment: cell-based
human glucagon receptor, sequence (P47871 26-477): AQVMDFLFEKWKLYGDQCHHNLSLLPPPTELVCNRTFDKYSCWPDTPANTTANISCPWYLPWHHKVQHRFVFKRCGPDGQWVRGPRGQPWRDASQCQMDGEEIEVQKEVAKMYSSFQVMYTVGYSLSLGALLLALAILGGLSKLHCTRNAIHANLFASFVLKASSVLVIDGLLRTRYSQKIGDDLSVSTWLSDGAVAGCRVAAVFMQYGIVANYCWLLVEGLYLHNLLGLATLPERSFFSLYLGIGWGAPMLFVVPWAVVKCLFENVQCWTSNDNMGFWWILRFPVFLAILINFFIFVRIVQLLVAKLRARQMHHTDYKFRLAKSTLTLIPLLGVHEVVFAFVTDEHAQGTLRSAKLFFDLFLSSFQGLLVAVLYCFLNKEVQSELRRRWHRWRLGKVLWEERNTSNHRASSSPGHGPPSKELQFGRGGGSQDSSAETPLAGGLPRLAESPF
Procedure: (§1) The in vitro functional potency is the measure of target receptor activation in a whole cell assay.
(§2) In vitro functional potency was determined by measuring the response of the target receptor in a reporter gene assay in individual cell lines. […] When the respective receptor is activated, it results in the production of cAMP, which in turn results in expression of the luciferase protein. When assay incubation is completed, luciferase substrate (luciferin) is added resulting in the enzymatic conversion of luciferin to oxyluciferin and producing bioluminescence. The luminescence is measured as the readout for the assay.
(§3) The cells lines used in these assays were BHK cells with BHKTS13 as a parent cell line. The cell lines were derived from a clone containing the CRE luciferase element and were established by further transfection with the respective receptor to obtain the relevant cell line.
(§4) The cells were cultured at 37° C. with 5% CO2 in Cell Culture Medium. They were aliquoted and stored in liquid nitrogen. The cells were kept in continuous culture and were seeded out the day before each assay.
(§5) GLP-1R and GcgR Cell Culture Medium consisted of DMEM medium with 10% FBS, 500 μg/mL G418, and 300 μg/mL hygromycin. GIPR Cell Culture Medium consisted of DMEM medium with 10% FBS, 400 μg/mL G418, and 300 μg/mL hygromycin. Assay Buffer consisted of DMEM w/o phenol red, 10 mM Hepes, 1×Glutamax, 1% ovalbumin, and 0.1% Pluronic F-68 with the addition of HSA at twice the final assay concentration.
(§6) • 1) Cells were plated at 5000 cells/well and incubated overnight in the assay plate. • 2) Cells were washed once in DPBS. • 3) Stocks of the test compounds and reference compounds in concentrations ranging from 100-300 μM were diluted 1:150 in Assay Buffer. Compounds were then diluted 1:10 in column 1 of a 96 deep well dilution plate and then carried across the row creating a 3.5 fold, 12 point dilution curve. • 4) Assay Buffer (50 μl aliquot) with or without HSA was added to each well in the assay plate. • 5) A 50 μl aliquot of compound or blank was transferred from the dilution plate to the assay plate containing the Assay Buffer with or without HSA. • 6) The assay plate was incubated for 3 h in a 5% CO2 incubator at 37° C. 7) The cells were washed once with DPBS. • 8) A 100 μl aliquot of DPBS was added to each well of the assay plate. • 9) A 100 μl aliquot of steadylite plus reagent (light sensitive) was added to each well of the assay plate. • 10) Each assay plate was covered with aluminum foil to protect it from light and shaken at 250 RPM for 30 min at room temperature. • 11) Each assay plate was read in a microtiter plate reader.
(§7) The data from the microtiter plate reader was first regressed in an Excel in order to calculate the x-axis, log scale concentrations based on the individual test compound's stock concentration and the dilutions of the assay. […] The software performs a non-linear regression (log(agonist) vs response). A minimum of two replicates was measured for each sample. The reported values are averages of the replicates.

human GLP-1 receptor = human GLP-1 receptor (Homo sapiens, UniProt P43220); experiment: cell-based; conditions: hGLP-1R
human GLP-1 receptor, sequence (P43220 24-463): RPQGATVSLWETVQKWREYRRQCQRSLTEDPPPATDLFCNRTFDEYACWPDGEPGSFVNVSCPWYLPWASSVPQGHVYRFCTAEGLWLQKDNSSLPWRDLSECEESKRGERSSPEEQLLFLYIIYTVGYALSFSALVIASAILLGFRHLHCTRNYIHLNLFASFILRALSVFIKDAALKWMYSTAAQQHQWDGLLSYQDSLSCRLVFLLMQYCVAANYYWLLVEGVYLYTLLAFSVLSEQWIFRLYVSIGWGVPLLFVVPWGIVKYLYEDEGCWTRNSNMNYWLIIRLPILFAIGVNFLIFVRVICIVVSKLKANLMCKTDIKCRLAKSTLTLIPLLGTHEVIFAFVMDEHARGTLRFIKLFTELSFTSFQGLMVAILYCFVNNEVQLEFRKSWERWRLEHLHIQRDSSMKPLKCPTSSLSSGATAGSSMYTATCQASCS
Procedure: as §1, §2, §3, §4, §5, §6, §7

mouse GLP-1 receptor = molecular target: T2, mouse GLP-1 receptor (Mus musculus, UniProt O35659)
T2 sequence (O35659 22-463): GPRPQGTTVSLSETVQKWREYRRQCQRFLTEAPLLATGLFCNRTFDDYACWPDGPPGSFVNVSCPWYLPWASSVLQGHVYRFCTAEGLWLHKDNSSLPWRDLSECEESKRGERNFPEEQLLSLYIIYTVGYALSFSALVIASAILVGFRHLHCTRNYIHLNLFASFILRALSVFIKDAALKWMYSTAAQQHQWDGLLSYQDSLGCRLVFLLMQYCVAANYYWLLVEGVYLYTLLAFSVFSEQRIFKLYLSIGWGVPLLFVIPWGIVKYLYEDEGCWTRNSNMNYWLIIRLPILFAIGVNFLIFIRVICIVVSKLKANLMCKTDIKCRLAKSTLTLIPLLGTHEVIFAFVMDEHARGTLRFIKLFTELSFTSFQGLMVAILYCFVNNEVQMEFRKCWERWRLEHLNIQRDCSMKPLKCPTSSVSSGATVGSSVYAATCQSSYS

Structure (SMILES) | EC50 (mouse GIP receptor) | EC50 (human glucagon receptor) | EC50 (human GLP-1 receptor; CRE Luc 0% HSA EC50, 0% HSA) | EC50 (human GLP-1 receptor; CRE Luc 1% HSA EC50, 1% HSA) | EC50 (mouse GLP-1 receptor)
CC[C@H](C)[C@H](NC(=O)[C@H](CO)NC(=O)[C@H](Cc1ccc(O)cc1)NC(=O)[C@H](CC(=O)O)NC(=O)[C@H](CO)NC(=O)[C@@H](NC(=O)[C@H](Cc1ccccc1)NC(=O)[C@@H](NC(=O)CNC(=O)[C@H](CCC(=O)O)NC(=O)C(C)(C)NC(=O)[C@@H](N)Cc1ccc(O)cc1)[C@@H](C)O)[C@@H](C)O)C(=O)N[C@@H](Cc1ccc(O)cc1)C(=O)N[C@@H](CC(C)C)C(=O)N[C@@H](CCC(=O)O)C(=O)N[C@@H](CCCCN)C(=O)N[C@@H](CCCCNC(=O)[C@@H](N)CCCCNC(=O)[C@@H](N)CCCCNC(=O)CC[C@H](NC(=O)[C@H]1CC[C@H](CNC(=O)CCCCCCCCCCCCCCCCCCC(=O)O)CC1)C(=O)O)C(=O)N[C@@H](C)C(=O)N[C@@H](C)C(=O)NC(C)(C)C(=O)N[C@@H](CCC(=O)O)C(=O)N[C@@H](Cc1ccccc1)C(=O)N[C@H](C(=O)N[C@@H](CC(N)=O)C(=O)N[C@@H](Cc1c[nH]c2ccccc12)C(=O)N[C@@H](CC(C)C)C(=O)N[C@@H](CC(C)C)C(=O)N[C@@H](C)C(=O)NCC(=O)NCC(=O)N1CCC[C@H]1C(=O)N[C@@H](CO)C(=O)N[C@@H](CO)C(=O)NCC(=O)N[C@@H](C)C(=O)N1CCC[C@H]1C(=O)N1CCC[C@H]1C(=O)N1CCC[C@H]1C(=O)N[C@@H](CO)C(N)=O)C(C)C [Compound 23] (H-Y[Aib]EGTFTSDYSIYLEKK([εLys-εLys-γGlu-Trx-C20 diacid])AA[Aib]EFVNWLLAGGPSSGAPPPS-NH2; N-terminus assumed) | 0.0175 nM | > 10 nM | 0.004 nM | 0.178 nM | 0.0037 nM
CC[C@H](C)[C@H](NC(=O)[C@H](CO)NC(=O)[C@H](Cc1ccc(O)cc1)NC(=O)[C@H](CC(=O)O)NC(=O)[C@H](CO)NC(=O)[C@@H](NC(=O)[C@H](Cc1ccccc1)NC(=O)[C@@H](NC(=O)CNC(=O)[C@H](CCC(=O)O)NC(=O)C(C)(C)NC(=O)[C@@H](N)Cc1ccc(O)cc1)[C@@H](C)O)[C@@H](C)O)C(=O)N[C@@H](Cc1ccc(O)cc1)C(=O)N[C@@H](CC(C)C)C(=O)N[C@@H](CCC(=O)O)C(=O)N[C@@H](CCCCN)C(=O)N[C@@H](CCC(N)=O)C(=O)N[C@@H](C)C(=O)N[C@@H](C)C(=O)NC(C)(C)C(=O)N[C@@H](CCCCNC(=O)[C@@H](N)CCCCNC(=O)[C@@H](N)CCCCNC(=O)CC[C@H](NC(=O)[C@H]1CC[C@H](CNC(=O)CCCCCCCCCCCCCCCCCCC(=O)O)CC1)C(=O)O)C(=O)N[C@@H](Cc1ccccc1)C(=O)N[C@H](C(=O)N[C@@H](CCC(N)=O)C(=O)N[C@@H](Cc1c[nH]c2ccccc12)C(=O)N[C@@H](CC(C)C)C(=O)N[C@@H](CC(C)C)C(=O)N[C@@H](CCC(=O)O)C(=O)NCC(=O)NCC(=O)N1CCC[C@H]1C(=O)N[C@@H](CO)C(=O)N[C@@H](CO)C(=O)NCC(=O)N[C@@H](C)C(=O)N1CCC[C@H]1C(=O)N1CCC[C@H]1C(=O)N1CCC[C@H]1C(=O)N[C@@H](CO)C(N)=O)C(C)C [Compound 24] (H-Y[Aib]EGTFTSDYSIYLEKQAA[Aib]K([εLys-εLys-γGlu-Trx-C20 diacid])FVQWLLEGGPSSGAPPPS-NH2; N-terminus assumed) | 0.0405 nM | > 10 nM | 0.0047 nM | 0.114 nM | 0.0099 nM
CC[C@H](C)[C@H](NC(=O)[C@H](CO)NC(=O)[C@H](Cc1ccc(O)cc1)NC(=O)[C@H](CC(=O)O)NC(=O)[C@H](CO)NC(=O)[C@@H](NC(=O)[C@H](Cc1ccccc1)NC(=O)[C@@H](NC(=O)CNC(=O)[C@H](CCC(=O)O)NC(=O)C(C)(C)NC(=O)[C@@H](N)Cc1ccc(O)cc1)[C@@H](C)O)[C@@H](C)O)C(=O)N[C@@H](Cc1ccc(O)cc1)C(=O)N[C@@H](CC(C)C)C(=O)N[C@@H](CCC(=O)O)C(=O)N[C@@H](CCCCNC(=O)COCCOCCNC(=O)COCCOCCNC(=O)CC[C@H](NC(=O)CCCCCCCCCCCCCCCCCCC(=O)O)C(=O)O)C(=O)N[C@@H](CCC(N)=O)C(=O)N[C@@H](C)C(=O)N[C@@H](C)C(=O)NC(C)(C)C(=O)N[C@@H](CCC(=O)O)C(=O)N[C@@H](Cc1ccccc1)C(=O)N[C@H](C(=O)N[C@@H](CC(N)=O)C(=O)N[C@@H](Cc1c[nH]c2ccccc12)C(=O)N[C@@H](CC(C)C)C(=O)N[C@@H](CC(C)C)C(=O)N[C@@H](C)C(=O)NCC(=O)NCC(=O)N1CCC[C@H]1C(=O)N[C@@H](CO)C(=O)N[C@@H](CO)C(=O)NCC(=O)N[C@@H](C)C(=O)N1CCC[C@H]1C(=O)N1CCC[C@H]1C(=O)N1CCC[C@H]1C(=O)N[C@@H](CO)C(N)=O)C(C)C [Compound 29] (H-Y[Aib]EGTFTSDYSIYLEK([AEEA-AEEA-γGlu-C20 diacid])QAA[Aib]EFVNWLLAGGPSSGAPPPS-NH2; N-terminus assumed) | 0.051 nM | > 10 nM | 0.0062 nM | 0.429 nM | 0.0018 nM
CC[C@H](C)[C@H](NC(=O)[C@H](CO)NC(=O)[C@H](Cc1ccc(O)cc1)NC(=O)[C@H](CC(=O)O)NC(=O)[C@H](CO)NC(=O)[C@@H](NC(=O)[C@H](Cc1ccccc1)NC(=O)[C@@H](NC(=O)CNC(=O)[C@H](CCC(=O)O)NC(=O)C(C)(C)NC(=O)[C@@H](N)Cc1ccc(O)cc1)[C@@H](C)O)[C@@H](C)O)C(=O)N[C@@H](Cc1ccc(O)cc1)C(=O)N[C@@H](CC(C)C)C(=O)N[C@@H](CCC(=O)O)C(=O)N[C@@H](CCCCN)C(=O)N[C@@H](CCCCNC(=O)[C@@H](N)CCCCNC(=O)[C@@H](N)CCCCNC(=O)CC[C@H](NC(=O)CCCCCCCCCCCCCCCCCCC(=O)O)C(=O)O)C(=O)N[C@@H](C)C(=O)N[C@@H](C)C(=O)NC(C)(C)C(=O)N[C@@H](CCC(=O)O)C(=O)N[C@@H](Cc1ccccc1)C(=O)N[C@H](C(=O)N[C@@H](CC(N)=O)C(=O)N[C@@H](Cc1c[nH]c2ccccc12)C(=O)N[C@@H](CC(C)C)C(=O)N[C@@H](CC(C)C)C(=O)N[C@@H](C)C(=O)NCC(=O)NCC(=O)N1CCC[C@H]1C(=O)N[C@@H](CO)C(=O)N[C@@H](CO)C(=O)NCC(=O)N[C@@H](C)C(=O)N1CCC[C@H]1C(=O)N1CCC[C@H]1C(=O)N1CCC[C@H]1C(=O)N[C@@H](CO)C(N)=O)C(C)C [Compound 31] (H-Y[Aib]EGTFTSDYSIYLEKK([εLys-εLys-γGlu-C20 diacid])AA[Aib]EFVNWLLAGGPSSGAPPPS-NH2; N-terminus assumed) | 0.0134 nM | 9.6 nM | 0.0019 nM | 0.0543 nM | 0.0013 nM

Source: patent US20230346961A1, “GLP-1 AND GIP RECEPTOR CO-AGONISTS” (Novo Nordisk A/S, priority 2020, published 2023)
